Measurements: patent US7880014B2, “Angiotensin II receptor antagonists” (Merck Sharp & Dohme Corp., priority 2006, dated 2011)

Key:
CYP3A4 = target: T1, CYP3A4 (Homo sapiens, UniProt P08684); assay: CYP3A4 Time-Dependent Inhibition Assay (pooled human liver microsomes, testosterone 6β-hydroxylation); type: in vitro ADME; details: human liver microsomes 1 mg/mL, preincubation 5 to 30 min
T1 construct: Pooled human liver microsomes (1 mg/mL) were preincubated at 37° C; from tissue; host or cells: pooled human liver microsomes
Description: The incubation mixtures were diluted 10-fold with the same buffer containing 250 μM testosterone and an NADPH-generating system. The incubation was continued for an additional 10 min to monitor the extent of testosterone 6β-hydroxylation. The first order rate constants (kobs) for inactivation at 10 and 50 μM were calculated from the negative slope of the lines by linear regression analysis of the natural logarithm of the remaining activity as a function of time using KaleidaGraph Synergy Software (Reading, Pa.).

rabbit aortic slices = assay: vessel relaxation assay (in vitro, tissue-based, rabbit aortic slices); type: cell-based

T1 sequence (P08684 whole entry): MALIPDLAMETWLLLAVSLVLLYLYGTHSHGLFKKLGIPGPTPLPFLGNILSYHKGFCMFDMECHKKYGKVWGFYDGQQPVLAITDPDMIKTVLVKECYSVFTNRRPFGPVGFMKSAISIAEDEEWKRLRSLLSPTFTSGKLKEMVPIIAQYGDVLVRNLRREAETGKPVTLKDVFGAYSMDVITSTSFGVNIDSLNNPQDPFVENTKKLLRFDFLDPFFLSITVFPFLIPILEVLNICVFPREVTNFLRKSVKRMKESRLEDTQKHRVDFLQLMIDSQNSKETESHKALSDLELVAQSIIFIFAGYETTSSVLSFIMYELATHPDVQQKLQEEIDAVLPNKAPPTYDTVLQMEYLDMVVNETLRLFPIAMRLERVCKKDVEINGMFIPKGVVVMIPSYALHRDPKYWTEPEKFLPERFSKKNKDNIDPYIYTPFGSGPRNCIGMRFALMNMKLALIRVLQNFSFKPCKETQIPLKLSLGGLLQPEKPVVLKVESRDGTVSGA

## CCCCc1nc(Cl)c(C(=O)OC(C)OC(=O)OCCCC[C@H](CO[N+](=O)[O-])O[N+](=O)[O-])n1Cc1ccc(-c2ccccc2-c2nnn[nH]2)cc1 (single isomer, unassigned) [Compound 2]
CYP3A4
  Rate Constant (kobs) at 10 μM: 0.026 min⁻¹
  Rate Constant (kobs) at 50 μM: 0.037 min⁻¹

## CCCCc1nc(Cl)c(C(=O)OC(C)OC(=O)OCCCC[C@H](CO[N+](=O)[O-])O[N+](=O)[O-])n1Cc1ccc(-c2ccccc2-c2nnn[nH]2)cc1 (single isomer, unassigned) [Compound 3]
Rabbit aortic slices
  EC50: 1300 nM
CYP3A4
  Rate Constant (kobs) at 10 μM: ~0.077 min⁻¹
  Rate Constant (kobs) at 50 μM: 0.076 min⁻¹
